Results: publication PMC7156736, “Phase 1 study of the pan-HER inhibitor dacomitinib plus the MEK1/2 inhibitor PD-0325901 in patients with KRAS-mutation-positive colorectal, non-small-cell lung and pancreatic cancer” (British Journal of Cancer, 2020)
Where two headings read alike, the source gives them in different places.

Tests used:
[1] = test system: patients with KRASm CRC, NSCLC or pancreatic cancer; type: in vivo; conditions: dacomitinib QD continuous, PD-0325901 BID 21 days on/7 days off
Excerpt: . The starting doses were based on previous data from single-agent Phase 1 studies with both compounds, taking into account the potential for synergistic toxicity. […]. Dose-escalation decisions were based on safety evaluation of all evaluable patients, performed after completion of the first treatment cycle. Patients were considered evaluable for the dose-determining part of this study if at least one cycle of study treatment was completed, with the minimum safety evaluation conducted, and at least one administration of both drugs received, or if dose-limiting toxicity (DLT) had occurred during the first cycle. If one out of three patients experienced a DLT, the number of patients treated at that dose level was expanded to a maximum of six. […] Patients were continuing study treatment until disease progression, unacceptable toxicity or investigator/patient decision to discontinue.
Safety was monitored throughout the treatment by physical examination, laboratory assessments, electrocardiography, ophthalmic evaluation and collection of adverse events. Adverse events were recorded according to the Common Terminology Criteria for Adverse Events version 4.0. All adverse events that were possible, probable or definite related to study drug were considered as study/treatment related. […]

[2] = plasma pharmacokinetics in patients (HPLC–MS/MS, non-compartmental analysis); type: in vivo, human; conditions: for AUC(0-t): read-out: AUC0-12h PD-0325901, mean (CV%); for Cmax: read-out: Cmax PD-0325901, mean (CV%)
Procedure: For pharmacokinetic analyses, serial blood samples were obtained from all patients prior to treatment administration on day 1, and 1, 2, 3, 4, 6, 8, 12, 24, 72 and 144 h after the first dose. On day 1 of cycle 2, blood samples were drawn before and 1, 2, 3, 4, 6, 8, 12 and 24 h after administration. Plasma samples were assayed using a validated high-performance liquid chromatography– tandem mass spectrometry method (HPLC–MS/MS). Briefly, dacomitinib and PD-0325901 were extracted from plasma by protein precipitation with a mixture of acetonitrile/methanol (1:1 v/v). Compounds were chromatographically separated using a Waters Xbridge BEH Phenyl column (50 ×2.1-mm ID, 5-μm particle size), and detection was performed using an API4000 tandem mass spectrometer equipped with a turbo ion spray interface, operating in the positive ion mode. Transitions from m/z 480 to 329 and m/z 489 to 255 were monitored for the detection of dacomitinib and PD-0325901, respectively. Stable isotope-labelled internal standards were used for the quantification. The lower and upper limits of quantification were, respectively, 0.5 and 50 ng/ml for dacomitinib, and 5 and 500 ng/ml for PD-0325901. Pharmacokinetic parameters were calculated in R using an in-house-developed validated script for non-compartmental pharmacokinetic analyses (version 3.6.0).[9]

[3] = test system: patients with advanced cancers; parameters: method as in PMID 20215549; conditions: BID, continuous schedule; cited from earlier work
[4] = Dose-level 2: dacomitinib 15 mg QD + PD-0325901 3 mg BID, Cycle 1 Day 1, n = 6
[5] = human, plasma, oral, 6 mg, All 6 mg doses, Cycle 1 Day 1, n = 14
[6] = human, plasma, oral, 6 mg, All 6 mg doses, Cycle 2 Day 1 or last day of concomitant use, n = 6
[7] = human, plasma, oral, Dose-level 1: dacomitinib 30 mg QD + PD-0325901 2 mg BID, Cycle 1 Day 1, n = 6
[8] = human, plasma, oral, Dose-level 1: dacomitinib 30 mg QD + PD-0325901 2 mg BID, Cycle 2 Day 1, n = 6
[9] = human, plasma, oral, Dose-level 2: dacomitinib 15 mg QD + PD-0325901 3 mg BID, Cycle 2 Day 1, n = 5
[10] = human, plasma, oral, Dose-level 3: dacomitinib 15 mg QD + PD-0325901 4 mg BID, Cycle 1 Day 1, n = 2
[11] = human, plasma, oral, Dose-level 3: dacomitinib 15 mg QD + PD-0325901 4 mg BID, Cycle 2 Day 1, n = 2
[12] = human, plasma, oral, Dose-level 4: dacomitinib 15 mg QD + PD-0325901 5 mg BID, Cycle 1 Day 1, n = 3
[13] = human, plasma, oral, Dose-level 4: dacomitinib 15 mg QD + PD-0325901 5 mg BID, Cycle 2 Day 1, n = 4
[14] = human, plasma, oral, Dose-level 5: dacomitinib 15 mg QD + PD-0325901 6 mg BID, Cycle 1 Day 1, n = 8
[15] = human, plasma, oral, Dose-level 5: dacomitinib 15 mg QD + PD-0325901 6 mg BID, Cycle 2 Day 1, n = 5
[16] = human, plasma, oral, Dose-level 6: dacomitinib 30 mg (4/3) QD + PD-0325901 6 mg BID, Cycle 1 Day 1, n = 3
[17] = human, plasma, oral, Dose-level 6: dacomitinib 30 mg (4/3) QD + PD-0325901 6 mg BID, last day of concomitant use of both drugs, n = 1
[18] = human, plasma, oral, Dose-level 7: dacomitinib 30 mg (5/2) QD + PD-0325901 6 mg (5/2) BID, Cycle 1 Day 1, n = 3
[19] = human, plasma, oral, Dose-level 7: dacomitinib 30 mg (5/2) QD + PD-0325901 6 mg (5/2) BID, last day of concomitant use of both drugs, n = 2
[20] = human, plasma, oral, Dose-level 8: dacomitinib 30 mg (5/2) QD + PD-0325901 5 mg (5/2) BID, Cycle 1 Day 1, n = 4
[21] = human, plasma, oral, Dose-level 8: dacomitinib 30 mg (5/2) QD + PD-0325901 5 mg (5/2) BID, last day of concomitant use of both drugs, n=2
[22] = human, plasma, oral, Dose-level -1: dacomitinib 15 mg QD + PD-0325901 2 mg BID, Cycle 1 Day 1, n = 4
[23] = human, plasma, oral, Dose-level -1: dacomitinib 15 mg QD + PD-0325901 2 mg BID, Cycle 2 Day 1, n = 3
[24] = patients, combination treatment

O=C(NOC[C@H](O)CO)c1ccc(F)c(F)c1Nc1ccc(I)cc1F [PD-0325901]
recommended Phase 2 dose (RP2D) / established maximum dose level in the combination with continuous dacomitinib dosing [1]: 6 mg | tmax PD-0325901, mean ([2]; All 6 mg doses, Cycle 1 Day 1, n = 14): 1.5 h | tmax PD-0325901, mean ([2]; All 6 mg doses, Cycle 2 Day 1 or last day of concomitant use, n = 6): 2.2 h | tmax PD-0325901, mean ([2]; Dose-level 1: dacomitinib 30 mg QD + PD-0325901 2 mg BID, Cycle 1 Day 1, n = 6): 1.2 h | tmax PD-0325901, mean ([2]; Dose-level 1: dacomitinib 30 mg QD + PD-0325901 2 mg BID, Cycle 2 Day 1, n = 6): 1.5 h | AUC0-12h PD-0325901, mean (CV%) [2, 4]: 273 (15) ng*h/ml | tmax PD-0325901, mean [2, 4]: 1.2 h | tmax PD-0325901, mean ([2]; Dose-level 2: dacomitinib 15 mg QD + PD-0325901 3 mg BID, Cycle 2 Day 1, n = 5): 2.2 h | tmax PD-0325901, mean ([2]; Dose-level 4: dacomitinib 15 mg QD + PD-0325901 5 mg BID, Cycle 1 Day 1, n = 3): 1.4 h | tmax PD-0325901, mean ([2]; Dose-level 5: dacomitinib 15 mg QD + PD-0325901 6 mg BID, Cycle 1 Day 1, n = 8): 1.4 h | tmax PD-0325901, mean ([2]; Dose-level 5: dacomitinib 15 mg QD + PD-0325901 6 mg BID, Cycle 2 Day 1, n = 5): 1.2 h | tmax PD-0325901, mean ([2]; Dose-level 6: dacomitinib 30 mg (4/3) QD + PD-0325901 6 mg BID, Cycle 1 Day 1, n = 3): 1.3 h | tmax PD-0325901, mean ([2]; Dose-level 7: dacomitinib 30 mg (5/2) QD + PD-0325901 6 mg (5/2) BID, Cycle 1 Day 1, n = 3): 1.3 h | tmax PD-0325901, mean ([2]; Dose-level 8: dacomitinib 30 mg (5/2) QD + PD-0325901 5 mg (5/2) BID, Cycle 1 Day 1, n = 4): 1.5 h | tmax PD-0325901, mean ([2]; Dose-level -1: dacomitinib 15 mg QD + PD-0325901 2 mg BID, Cycle 1 Day 1, n = 4): 1.3 h | tmax PD-0325901, mean ([2]; Dose-level -1: dacomitinib 15 mg QD + PD-0325901 2 mg BID, Cycle 2 Day 1, n = 3): 1.1 h | plasma concentration versus target level (16.5 ng/ml) ([2]; PD-0325901 doses of 5 and 6 mg, during the entire dose interval): exceeded the target level | increase of exposure with dose ([2]; across dose levels): approximately dose-proportionally | AUC(0-t) [2, 5]: 706 ng·h/mL | Cmax [2, 5]: 227 ng/mL | AUC(0-t) [2, 6]: 954 ng·h/mL | Cmax [2, 6]: 217 ng/mL | AUC(0-t) [2, 7]: 188 ng·h/mL | Cmax [2, 7]: 68.7 ng/mL | AUC(0-t) [2, 8]: 210 ng·h/mL | Cmax [2, 8]: 58.3 ng/mL | Cmax ([2]; human, plasma, oral, Dose-level 2: dacomitinib 15 mg QD + PD-0325901 3 mg BID, Cycle 1 Day 1, n = 6): 85 ng/mL | AUC(0-t) [2, 9]: 279 ng·h/mL | Cmax [2, 9]: 73.8 ng/mL | AUC(0-t) [2, 10]: 452 ng·h/mL | Cmax [2, 10]: 106 ng/mL | AUC(0-t) [2, 11]: 376 ng·h/mL | Cmax [2, 11]: 125 ng/mL | AUC(0-t) [2, 12]: 552 ng·h/mL | Cmax [2, 12]: 179 ng/mL | AUC(0-t) [2, 13]: 638 ng·h/mL | Cmax [2, 13]: 229 ng/mL | AUC(0-t) [2, 14]: 822 ng·h/mL | Cmax [2, 14]: 262 ng/mL | AUC(0-t) [2, 15]: 855 ng·h/mL | Cmax [2, 15]: 242 ng/mL | AUC(0-t) [2, 16]: 635 ng·h/mL | Cmax [2, 16]: 192 ng/mL | AUC(0-t) [2, 17]: 1340 ng·h/mL | Cmax [2, 17]: 254 ng/mL | AUC(0-t) [2, 18]: 635 ng·h/mL | Cmax [2, 18]: 192 ng/mL | AUC(0-t) [2, 19]: 406 ng·h/mL | Cmax [2, 19]: 56 ng/mL | Tmax ([2]; human, plasma, oral, Dose-level 7: dacomitinib 30 mg (5/2) QD + PD-0325901 6 mg (5/2) BID, last day of concomitant use of both drugs, n = 2, read-out: tmax PD-0325901, mean): 4.5 h | AUC(0-t) [2, 20]: 463 ng·h/mL | Cmax [2, 20]: 134 ng/mL | AUC(0-t) [2, 21]: 667 ng·h/mL | Cmax [2, 21]: 155 ng/mL | AUC(0-t) [2, 22]: 160 ng·h/mL | Cmax [2, 22]: 43.7 ng/mL | AUC(0-t) [2, 23]: 145 ng·h/mL | Cmax [2, 23]: 47.7 ng/mL | half-life ([2]; human, plasma, oral, patients, combination treatment, read-out: half-life, range): 5 to 9.9 h | accumulation after multiple doses (AUC and Cmax) [2, 24]: minimal accumulation | half-life, mean [2, 24]: 7.7 h | formal single-agent RP2D [3]: 10 mg
